From EP0471296B1, “1-(Pyridinylalkyl)-1H-indoles, indolines and related analogs” (HOECHST-ROUSSEL PHARMACEUTICALS INCORPORATED, priority 1990, dated 1992)

Columns and labels:
[1] = target: T1, Brain Acetylcholinesterase (Rattus norvegicus, UniProt P37136); test: In Vitro Inhibition of Acetylcholinesterase Activity in Rat Striatum (modified Ellman method); type: biochemical; details: rat striatum homogenate, read-out: % Inhibition @ Dose
T1 construct: corpora striata dissected free, weighed and homogenized in 19 volumes; from tissue; host or cells: rat corpora striata homogenate (male Wistar rats)
T1 sequence (P37136 32-614): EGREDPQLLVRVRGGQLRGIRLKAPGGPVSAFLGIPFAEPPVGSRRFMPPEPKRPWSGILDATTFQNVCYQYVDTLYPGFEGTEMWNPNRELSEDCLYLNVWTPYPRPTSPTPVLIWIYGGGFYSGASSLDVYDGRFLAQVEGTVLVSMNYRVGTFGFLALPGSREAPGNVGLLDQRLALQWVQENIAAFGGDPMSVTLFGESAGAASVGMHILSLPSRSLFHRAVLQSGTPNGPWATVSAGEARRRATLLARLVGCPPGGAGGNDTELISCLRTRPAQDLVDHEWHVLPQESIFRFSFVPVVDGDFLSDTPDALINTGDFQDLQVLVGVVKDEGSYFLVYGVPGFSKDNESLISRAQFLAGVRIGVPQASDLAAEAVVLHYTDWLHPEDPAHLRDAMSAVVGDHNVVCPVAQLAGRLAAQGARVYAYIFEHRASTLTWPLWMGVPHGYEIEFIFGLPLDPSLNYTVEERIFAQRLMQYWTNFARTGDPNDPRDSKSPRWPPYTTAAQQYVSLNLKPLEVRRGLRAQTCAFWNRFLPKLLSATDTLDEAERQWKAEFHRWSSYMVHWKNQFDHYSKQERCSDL
Excerpt: Cholinesterases are found throughout the body, both in the brain and in serum. However, only brain acetylcholinesterase (AChE) distribution is correlated with central cholinergic innervation. […] We have determined in vitro inhibition of acetylcholinesterase activity in rat striatum according to the method described below.
In Vitro Inhibition of Acetylcholinesterase Activity in Rat Striatum
Acetylcholinesterase (AChE), which is sometimes called true or specific cholinesterase, is found in nerve cells, skeletal muscle, smooth muscle, various glands and red blood cells. AChE may be distinguished from other cholinesterases by substrate and inhibitor specificities and by regional distribution.
It is generally accepted that the physiological role of AChE is the rapid hydrolysis and inactivation of acetylcholine. […]
• A. Reagents- • 1. […] If active, IC₅₀ values are determined from the inhibitory activity of subsequent concentrations. • B. Tissue Preparation - Male Wistar rats are decapitated, brains rapidly removed, corpora striata dissected free, weighed and homogenized in 19 volumes (approximately 7 mg protein/ml) of 0.05 M phosphate buffer, pH 7.2, using a Potter-Elvehjem homogenizer. […] Assay Enzyme activity is measured with the Beckman DU-50 spectrophotometer. […] This program also calculates the rate of absorbance change for each cuvette. […]

mice = test: Dark Avoidance Assay (reversal of scopolamine-induced memory deficit); type: in vivo; details: s.c.
Method: In this assay mice are tested for their ability to remember an unpleasant stimulus for a period of 24 hours. A mouse is placed in a chamber that contains a dark compartment; a strong incandescent light drives it to the dark compartment, where an electric shock is administered through metal plates on the floor. The animal is removed from the testing apparatus and tested again, 24 hours later, for the ability to remember the electric shock.
If scopolamine, an anticholinergic that is known to cause memory impairment, is administered before an animal's initial exposure to the test chamber, the animal re-enters the dark compartment shortly after being placed in the test chamber 24 hours later. This effect of scopolamine is blocked by an active test compound, resulting in a greater interval before re-entry into the dark compartment.
The results for an active compound are expressed as the percent of a group of animals in which the effect of scopolamine is blocked, as manifested by an increased interval between being placed in the test chamber and re-entering the dark compartment.

Compound `Oc1ccc2c(ccn2Cc2ccncc2)c1` [1-(4-pyridinylmethyl)-1H-indol-5-ol, 1-(4-Pyridinylmethyl)-1H-indol-5-ol] has an inhibition at 100 µM ([1]; 100 µM) of 24%.
With `c1ccc2c(c1)ccn2Cc1ccncc1` [1-(4-pyridinylmethyl)-1H-indole, 1-(4-Pyridinylmethyl)-1H-indole] the “% of Animals with Scopolamine-Induced Memory Deficit Reversal” value (from here on “% of Animals”) (mice; dose 0.3 mg/kg of body weight) was 33% and the “% of Animals” value (mice; dose 1.0 mg/kg of body weight) was 20%.
For `CCCC(c1ccncc1)n1ccc2ccccc21` (stereo not shown) [1-[1-(4-pyridinyl)-butyl]-1H-indole, 1-[1-(4-Pyridinyl)butyl]-1H-indole], the “% of Animals” value (mice; dose 0.3 mg/kg of body weight) was 20%.
Compound `CN1CCC2(C)c3cc(O)ccc3N(C)C12` (stereo not shown) [Eseroline] has an inhibition at 6.4 µM ([1]; 6.4 µM) of 50%.
With `CC[C@@H]1C(=O)OC[C@@H]1Cc1cncn1C` [Pilocarpine] the “% of Animals” value (mice; dose 5.0 mg/kg of body weight) was 13%.
In the case of `Nc1c2c(nc3ccccc13)CCCC2` [Tacrine], the “% of Animals” value (mice; dose 0.63 mg/kg of body weight) is reported as 13%.
